# Data taken from patent publication US7019000B1, “Method of treating a disease condition caused or exacerbated by an HPV” (Institute of Molecular & Cell Biology, priority 1998, dated 2006).
# Key:
# [1] = test system: HPV containing cell lines as HeLa, SiHa and Caski, compared to HPV-negative cell lines MCF7, HEPG2, (HaCat, HT3, 444); assay: Cell viability (WST1 assay), panel of HPV-positive and HPV-negative cell lines; format: cell-based, human; conditions: for WST1: 50 μM in cell culture; for WST1-spec: 50 μM, HPV containing vs HPV-negative cell lines
# Protocol: Zinc finger proteins are required for maintenance of cell viability. Preferably, the compounds for use in the present invention are specific in their ability to affect the viability of MPV containing cells, with little or no cytotoxic effects on the cellular functioning of healthy non-MPV containing cells. The viability of MPV-infected cells (and non infected cells) in the presence of compounds of Formulae (I) or (II) can be measured by incubating with the tetrazolium salt WST1 (Roche Molecular Biochemicals, Manneheim Germany) and measuring the absorption readings thereof (WST1 assay).
# All cell lines were obtained from the American Type Culture Collection (Manassas, Va.) unless otherwise noted. SiHa (human cervical epithelial tumor line, HPV16-positive), CaSki (human cervical epithelial tumor line, HPV16-positive), HaCat (immortalized human skin epithelial cell line, HPV-negative), HeLa (human cervical epithelial tumor line, HPV18-positive), 444 (hybrid of HeLa and fibroblast, HPV18-positive) obtained from Eric Stanbridge (Universitv of California, Irvine), MCF7 (human mammary epithelial tumor cell line, HPV-negative), HT3 (human cervical epithelial tumor cell line, HPV-negative) was obtained from the German Cancer Research Institute/DKFZ-Heidelberg, and HepG2, (human liver epithelial tumor cell line, HPV-negative), were grown in Dulbecco's modified Eagle medium (DMEM) supplemented with 10% fetal calf serum, 100 U penicillin and 1000 U streptomycin. Cells were allowed to attach to the surface of microwell dishes overnight and subsequently, incubated with medium containing the zinc ejecting compounds at the concentrations (10–100 μM). Viability of the cells was scored by measuring the absorption of the tetrazolium salt WST1 (Roche Molecular Biochemicals, Mannheim, Germany) in an Elisa-plate reader (Tecan, Salzburg, Austria) at a wavelength of 450 nm and a reference wavelength of 630 nm.
# A total of 10 000 cells per well were plated on 24 well plates, after attachment overnight, they were treated 3 times in 3 days with C16 at 10 μM and 50 μM. The activity of C16 was also compared with that of C4 (azodicarbonamide) which causes ejection of zinc from HIV-1 NCp7 and is currently used in clinical trials for the treatment of AIDS.
# [2] = target: T1, HPV-16-E6 (recombinant GST-E6 protein) (Human papillomavirus type 16, UniProt P03126); assay: biochemical; format: biochemical; conditions: read-out: TSQ % (% values of Zinc release)
# T1 construct: The full length HPV16 E6 gene was amplified via polymerase chain reaction and cloned in the vector pGeX4T2; made in house; host or cells: E. coli strain AB1899
# Excerpt: Where the chelated metal is zinc, zinc release can be measured as an increase in the fluorescence of the zinc-selective fluorophore TSQ (N-(6-methoxy-8-quinolyl)-p-toluenesulfonamide) (18) in the presence of the protein and the active compound (TSQ assay).
# In such an assay, the increase in fluorescence measured can be described as a percentage of the increase in fluorescence observed for a positive control compound which provides 100% zinc release. A suitable positive control compound is H2O2. Preferred compounds which may be useful in the present invention are those which release at least 30% of the chelated zinc as measured by the TSQ assay. Particularly preferred compounds for use in the present invention are those which release at least 40% of the chelated zinc, more preferably at least 50%.
# In earlier studies, reduced glutathione (GSH) was required to elute recombinant glutathione sulfhydryl transferase E6 (recombinant (GST-E6)) protein during the purification process. However, the reducing activity of the GSH sulfhydryl groups protected GST-E6 protein from the chemical attack by agents, such as the disulphide based organic compounds of Formula (I) and (II). […] Individual assays were done in the presence of 9 μg GST-E6 protein, corresponding to a concentration of 1 μM GST-E6 protein and 2 μM bound zinc, assuming the presence of two Zn ions per protein.
# Release of zinc from HPV-16-E6 was monitored by the change in fluorescence of the zinc-selective fluorophore TSQ (N-6-methoxy-8-quinolyl)-p-toluenesulfonamide), (Molecular Probes, Eugene, Oreg.) by modification of published procedures (25, 26, 27). In a total reaction volume of 200 μl, 9 μg (1 μM) recombinant GST-E6 protein (corresponding to a concentration of 1 μM), bound to glutathione-sepharose beads, were incubated with 10 μM of each compound or 0.6% (170 mM) H2O2 in TSQ-assay buffer (10 mM sodium phosphate buffer pH7.0, 10% glycerol) for 2 hours at room temperature (200 μl total volume in 96-well plates). Immediately after addition of 100 μM TSQ, the increase in fluorescence was measured on a SLT Fluostar (355 nm excitation filter and 460 nm emission filter, Tecan, Salzburg).
# Values given are % values of Zinc release. The relative fluorescence units (RFU) were normalized to the amount of zinc released by H2O2 (regarded as 100%). The concentration of compound used was 10 μM for C27–C35, 13 μM for C37–C83, H2O2 was used at 0.3% for C27–C35 and 0.2% for C37–C83.
# [3] = target: T2, binding of E6 with E6AP and E6BP (Human papillomavirus type 16, UniProt P03126); set-up: species or system HPV-16; conditions: for BIACORE (E6BP/E6AP): 400 μM compound, 2 hrs at room temperature, GST-E6 7 μM in 10 mM GSH; for complex formation of GST-E6 with GST-E6AP/GST-E6BP, controls: 5 mM EDTA or 0.6% (170 mM) H2O2, 2 hrs at room temperature
# T2 construct: The full length HPV16 E6 gene was amplified via polymerase chain reaction and cloned in the vector pGeX4T2; made in house; host or cells: E. coli strain AB1899
# Excerpt: BIACORE allows real time analysis of bimolecular interactions without the need for isotopic or enzymatic labelling. BIACORE technology is based on the optical surface plasmon resonance (SPR), a technique that allows for detecting small changes in the refractive index on the surface of a thin gold film coated with a dextran matrix. Typically, one of the binding partners (termed the ligand) is covalently linked to the dextran matrix, while the other partner (termed the analyte) is introduced in a flow passing over the surface. The change in refractive index resulting from the interaction of the molecules is expressed in resonance units (RU): a SPR response of 1000 RU corresponds to a change of the surface concentration of the analyte of 1 ng protein/mm^2. GST-E6AP and GST-E6BP were used as ligands and GSTE6 was used as the analyte. […] Further controls included using the dextran matrix alone or GST as the ligand.
# Binding of GST-E6 to GST-E6BP, GST-E6AP and GST was monitored by surface plasmon resonance (SPR) on a BIACORE 2000 machine (Biacore AB, Uppsala, Sweden). […] Typically 6000–10000 RU of GST, E6BP and E6AP were immobilized on three difference flowcells. Aliquots of purified HPV-16 GST-E6 (7 μM in 10 mM GSH, 50 mM Tris/PBS buffer, pH 8.2) were incubated with either 400 μM compound, or 5 mM EDTA, or 0.6% (170 mM) H2O2 for 2 hrs at room temperature. Then 10 μl of sample was injected at 1 μl/min over the three immobilized ligands using the sequential flow mode. The interactions between GST-E6 and ligands were monitored by the change of resonance signal in arbitrary units (RU).
# T1 sequence (P03126 whole entry): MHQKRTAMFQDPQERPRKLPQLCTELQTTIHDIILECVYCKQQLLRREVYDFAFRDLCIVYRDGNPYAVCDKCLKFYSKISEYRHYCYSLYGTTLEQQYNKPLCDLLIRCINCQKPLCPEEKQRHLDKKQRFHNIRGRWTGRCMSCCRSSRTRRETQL
# T2 sequence (P03126 whole entry): as above
Structure (SMILES),growth inhibition ([1]; any of these six cell lines (FIG. 3)),WST1 [1],activation at 10 µM [2] [%],BIACORE (E6BP/E6AP) [3],WST1-spec [1],activation at 13 µM [2] [%],"complex formation of GST-E6 with GST-E6AP/GST-E6BP, controls [3]"
"NC(=O)N=NC(N)=O [Compound C4, azodicarbonamide, reference compound]",did not cause growth inhibition,,,,,,
O=C1c2ccccc2C(=O)N1SSN1C(=O)c2ccccc2C1=O [Compound C27],,+,103,"+ (compound interferes in binding of E6 with E6AP and E6BP, binding is less than 50% of the corresponding E6-DMSO value.)",,,
S=C(SSC(=S)N1CCOCC1)N1CCOCC1 [Compound C32],,,80.9,"+ (compound interferes in binding of E6 with E6AP and E6BP, binding is less than 50% of the corresponding E6-DMSO value.)",,,
CN1CCCN(C(=S)SSC(=S)N2CCCN(C)CC2)CC1 [Compound C35],,+,106,,,,
CC1CN(SSN2CC(C)OC(C)C2)CC(C)O1 (centres unmarked) [Compound C37],,+,,"+ (compound interferes in binding of E6 with E6AP and E6BP, binding is less than 50% of the corresponding E6-DMSO value.)",+,40.3,
C1CN(SSN2CCSCC2)CCS1 [Compound C38],,+,,"+ (compound interferes in binding of E6 with E6AP and E6BP, binding is less than 50% of the corresponding E6-DMSO value.)",+,41.8,
CN1CCN(SSN2CCN(C)CC2)CC1 [Compound C39],,+,,"+ (compound interferes in binding of E6 with E6AP and E6BP, binding is less than 50% of the corresponding E6-DMSO value.)",+,45,
CCOC(=O)N1CCN(SSN2CCN(C(=O)OCC)CC2)CC1 [Compound C41],,+,,"+ (compound interferes in binding of E6 with E6AP and E6BP, binding is less than 50% of the corresponding E6-DMSO value.)",+,36.8,
C1CCN(SSN2CCCC2)C1 [Compound C42],,+,,"+ (compound interferes in binding of E6 with E6AP and E6BP, binding is less than 50% of the corresponding E6-DMSO value.)",,50.5,
C1CCN(SSN2CCCCC2)CC1 [Compound C48],,+,,"+ (compound interferes in binding of E6 with E6AP and E6BP, binding is less than 50% of the corresponding E6-DMSO value.)",+,54.3,
CCN(CC)SSN(CC)CC [Compound C49],,+,,"+ (compound interferes in binding of E6 with E6AP and E6BP, binding is less than 50% of the corresponding E6-DMSO value.)",,57,
c1ccc(N2CCN(SSN3CCN(c4ccccn4)CC3)CC2)nc1 [Compound C55],,+,,"+ (compound interferes in binding of E6 with E6AP and E6BP, binding is less than 50% of the corresponding E6-DMSO value.)",+,50.6,
O=[N+]([O-])c1ccc(N2CCN(SSN3CCN(c4ccc([N+](=O)[O-])cc4)CC3)CC2)cc1 [Compound C69],,,,"+ (compound interferes in binding of E6 with E6AP and E6BP, binding is less than 50% of the corresponding E6-DMSO value.)",,0,
COc1ccc(N2CCN(SSN3CCN(c4ccc(OC)cc4)CC3)CC2)cc1 [Compound C71],,+,,,+,0,
CC1(C)COCN1SSN1COCC1(C)C [Compound C82],,+,,"+ (compound interferes in binding of E6 with E6AP and E6BP, binding is less than 50% of the corresponding E6-DMSO value.)",,28.4,
CCOC(=O)CN(Cc1ccccc1)SSN(CC(=O)OCC)Cc1ccccc1 [Compound C83],,+,,"+ (compound interferes in binding of E6 with E6AP and E6BP, binding is less than 50% of the corresponding E6-DMSO value.)",,22,
"OO [Compound H2O2, H2O2, reference compound]",,,,,,,completely eliminated complex formation
C1CN1SSN1CC1 [Compound R24],,+,71,"+ (compound interferes in binding of E6 with E6AP and E6BP, binding is less than 50% of the corresponding E6-DMSO value.)",,,
CC1CN1SSN1CC1C (centres unmarked) [Compound R25],,,30.9,"+ (compound interferes in binding of E6 with E6AP and E6BP, binding is less than 50% of the corresponding E6-DMSO value.)",,,
O=CN(SSN(C=O)C1CCCCC1)C1CCCCC1 [Compound R26],,+,54.9,"+ (compound interferes in binding of E6 with E6AP and E6BP, binding is less than 50% of the corresponding E6-DMSO value.)",,,
"O=C(O)CN(CCN(CC(=O)O)CC(=O)O)CC(=O)O [EDTA, reference compound]",,,,,,,completely eliminated complex formation
